“And” between values parts separate entries of the source, which are not always exact repeats. Equal values may be shown once. Each block holds one compound with its values, some of them ahead of it.
Tests used:
[1] = system: atherosclerotic plaque in the descending aorta; test: 13 week HF/HC diet rabbit model of atherosclerosis, on top of simvastatin; format: in vivo, NZW rabbits; details: compound 115 2.5 mg/kg and simvastatin 2.5 mg/kg; p=0.05
Description: The objective of the study is to determine if the compounds of Formula I provide additional reduction in atherosclerosis development in high fat/high cholesterol (HF/HC) fed rabbits on top of simvastatin compared to simvastatin alone. Treatment with a statin is considered the standard of care for atherosclerosis clinically. In order to determine if the anti-atherosclerotic effect observed in rabbits is effective on top of statin treatment, rabbits were treated with compound 115 (Table 1) in combination with simvastatin and the effects on atherosclerosis reduction with both control and statin treatment alone were compared. […] The rabbits were fed 125 g of rabbit chow each day and both food consumption and body weights were measured throughout the study period. […] The extent of atherosclerosis development was measured in the descending aorta after the vessels were pinned out on the silicone surface of metal trays and stained with Sunan IV stain. […] The percentage of plaque area of the descending aorta was determined. […] Atherosclerotic lesion formation was quantified by image analysis software using ImagePro Plus software. The mean of thee different sections 100 μm apart was determined. The mean value of each parameter was calculated for each different treatment group and compared to the control value. […]

[2] = target: T1, recombinant human FLAP protein (Homo sapiens, UniProt P20292); test: FLAP binding assay (SPA, displacement of [125I]L-691,831); details: @1000 nM
T1 construct: made in house; host or cells: Sf9 insect cells (membrane fraction, 100,000 x g pellet)
T1 sequence (P20292 1-161): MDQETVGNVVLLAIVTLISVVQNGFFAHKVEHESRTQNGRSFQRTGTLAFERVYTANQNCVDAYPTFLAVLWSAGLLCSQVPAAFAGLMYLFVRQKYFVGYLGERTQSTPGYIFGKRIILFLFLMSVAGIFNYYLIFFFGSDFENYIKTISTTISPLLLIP
Description: Assessment of Biological Properties 1. Binding Assay
Cell pellets produced from sf9 insect cells expressing recombinant human FLAP protein are resuspended in buffer A [15 mM Tris-HCl (pH 7.5), 2 mM MgCl2, 0.3 mM EDTA, 1 mM PMSF]. The cells are lysed with a Dounce homogenizer and the material is centrifuged at 10,000×g for 10 minutes. The supernatant is then collected and centrifuged at 100,000×g for 60 minutes. To prepare membrane protein for an assay, an aliquot of the 100,000×g pellet is resuspended in 1 ml of buffer A, Dounce homogenized, and finally subjected to polytron mixing (30 seconds). Membrane protein (25 μl, 5 μg) is mixed with WGA SPA beads (Amersham) and stirred for 1 h.

proteinuria = details: clinical trial, human glomerulonephritis; cited from earlier work

SMILES: CN(C)C(=O)Cn1cc(-c2nc([C@@](C)(c3ccc(-c4cnc(N)nc4)cc3)C3CC3)no2)cn1 (single isomer, unassigned) [Example 115]
further reduction in plaque area compared to simvastatin alone [1]: 32% and 34%

FLAP binding % inh [2]: 51% inh@1000 nM
SMILES: CC(C)C(C)(c1ccc(-c2cnc(N)nc2)cc1)c1noc(O)n1 (stereo not drawn) [Example 88, 3-{1-[4-(2-Amino-pyrimidin-5-yl)-phenyl]-1,2-dimethyl-propyl}-[1,2,4]oxadiazol-5-ol]

SMILES: CC(C)(C)Sc1c(CC(C)(C)C(=O)O)n(Cc2ccc(Cl)cc2)c2ccc(OCc3ccc4ccccc4n3)cc12 [MK-591]
effect on proteinuria (proteinuria): reduce proteinuria
